Source: PMC9866191, “Novel 9-Benzylaminoacridine Derivatives as Dual Inhibitors of Phosphodiesterase 5 and Topoisomerase II for the Treatment of Colon Cancer” (Molecules, 2023)

Experiments:
Format in all cases: cell-based
[1] = system: panel of 60 human tumor cell lines; experiment: NCI 60-cell line one-dose screen (mean); settings: mean of the 60 cell lines, single dose 10^−5 M, read-out: Mean % Growth Inhibition
Procedure, shortened: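 Primary NCI screen: one concentration (10^−5 M) applied to all 60 human cancer cell lines from 9 tissue types; growth inhibition reported as a percentage.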

U251 = experiment: NCI-60 one-dose screen; settings: Homo sapiens, U-251; U251, CNS Cancer panel; single dose 10^−5 M; read-out: Growth inhibition %
A498 = experiment: NCI-60 one-dose screen; settings: Homo sapiens; A498, Renal Cancer panel; single dose 10^−5 M; read-out: Growth inhibition %
A549/ATCC = experiment: NCI-60 one-dose screen; settings: Homo sapiens, Non-small cell lung panel, single dose 10^−5 M, read-out: Growth inhibition %
NCI-H522 = experiment: NCI-60 one-dose screen; settings: Homo sapiens; NCI-H522, Non-small cell lung panel; single dose 10^−5 M; read-out: Growth inhibition %
HOP-62 = experiment: NCI-60 one-dose screen; settings: Homo sapiens; HOP-62, Non-small cell lung panel; single dose 10^−5 M; read-out: Growth inhibition %
SNB-75 = experiment: NCI-60 one-dose screen; settings: Homo sapiens; SNB-75, CNS Cancer panel; single dose 10^−5 M; read-out: Growth inhibition %
SK-OV-3 = experiment: NCI-60 one-dose screen; settings: Homo sapiens; SK-OV-3, Ovarian Cancer panel; single dose 10^−5 M; read-out: Growth inhibition %
MOLT-4 = experiment: NCI-60 one-dose screen; settings: Homo sapiens; MOLT-4, Leukemia panel; single dose 10^−5 M; read-out: Growth inhibition %
EKVX = experiment: NCI-60 one-dose screen; settings: Homo sapiens, Non-small cell lung panel, single dose 10^−5 M, read-out: Growth inhibition %
UACC-257 = experiment: NCI-60 one-dose screen; settings: Homo sapiens; UACC-257, Melanoma panel; single dose 10^−5 M; read-out: Growth inhibition %
ACHN = experiment: NCI-60 one-dose screen; settings: Homo sapiens, Renal Cancer panel, single dose 10^−5 M, read-out: Growth inhibition %
SN12C = experiment: NCI-60 one-dose screen; settings: Homo sapiens, Renal Cancer panel, single dose 10^−5 M, read-out: Growth inhibition %
HCT-116 = experiment: NCI-60 one-dose screen; settings: Homo sapiens, read-out: Growth inhibition %
UO-31 = experiment: NCI-60 one-dose screen; settings: Homo sapiens; UO-31, Renal Cancer panel; single dose 10^−5 M; read-out: Growth inhibition %
HOP-92 = experiment: NCI-60 one-dose screen; settings: Homo sapiens; HOP-92, Non-small cell lung panel; single dose 10^−5 M; read-out: Growth inhibition %
BT-549 = experiment: NCI-60 one-dose screen; settings: Homo sapiens; BT-549, Breast Cancer panel; single dose 10^−5 M; read-out: Growth inhibition %
RXF 393 = experiment: NCI-60 one-dose screen; settings: Homo sapiens; RXF 393, Renal Cancer panel; single dose 10^−5 M; read-out: Growth inhibition %
MDA-MB-231/ATCC = experiment: NCI-60 one-dose screen; settings: Homo sapiens, Breast Cancer panel, single dose 10^−5 M, read-out: Growth inhibition %
NCI-H23 = experiment: NCI-60 one-dose screen; settings: Homo sapiens; NCI-H23, Non-small cell lung panel; single dose 10^−5 M; read-out: Growth inhibition %
SK-MEL-5 = experiment: NCI-60 one-dose screen; settings: Homo sapiens; SK-MEL-5, Melanoma panel; single dose 10^−5 M; read-out: Growth inhibition %
M14 = experiment: NCI-60 one-dose screen; settings: Homo sapiens; M14, Melanoma panel; single dose 10^−5 M; read-out: Growth inhibition %
NCI-H460 = experiment: NCI-60 one-dose screen; settings: Homo sapiens; NCI-H460, Non-small cell lung panel; single dose 10^−5 M; read-out: Growth inhibition %
OVCAR-8 = experiment: NCI-60 one-dose screen; settings: Homo sapiens; OVCAR-8, Ovarian Cancer panel; single dose 10^−5 M; read-out: Growth inhibition %
SW-620 = experiment: NCI-60 one-dose screen; settings: Homo sapiens; SW-620, Colon Cancer panel; single dose 10^−5 M; read-out: Growth inhibition %
COLO 205 = experiment: NCI-60 one-dose screen; settings: Homo sapiens; COLO 205, Colon Cancer panel; single dose 10^−5 M; read-out: Growth inhibition %
NCI-H226 = experiment: NCI-60 one-dose screen; settings: Homo sapiens; NCI-H226, Non-small cell lung panel; single dose 10^−5 M; read-out: Growth inhibition %
OVCAR-4 = experiment: NCI-60 one-dose screen; settings: Homo sapiens; OVCAR-4, Ovarian Cancer panel; single dose 10^−5 M; read-out: Growth inhibition %
K-562 = experiment: NCI-60 one-dose screen; settings: Homo sapiens, K562; K-562, Leukemia panel; single dose 10^−5 M; read-out: Growth inhibition %
MALME-3M = experiment: NCI-60 one-dose screen; settings: Homo sapiens, Melanoma panel, single dose 10^−5 M, read-out: Growth inhibition %
SF-539 = experiment: NCI-60 one-dose screen; settings: Homo sapiens; SF-539, CNS Cancer panel; single dose 10^−5 M; read-out: Growth inhibition %
HCC-2998 = experiment: NCI-60 one-dose screen; settings: Homo sapiens; HCC-2998, Colon Cancer panel; single dose 10^−5 M; read-out: Growth inhibition %

SMILES	inhibition at 10 µM [1] [%]	inhibition at 10 µM (U251) [%]	inhibition at 10 µM (A498) [%]	inhibition at 10 µM (A549/ATCC) [%]	inhibition at 10 µM (NCI-H522) [%]	inhibition at 10 µM (HOP-62) [%]	inhibition at 10 µM (SNB-75) [%]	inhibition at 10 µM (SK-OV-3) [%]	inhibition at 10 µM (MOLT-4) [%]	inhibition at 10 µM (EKVX) [%]	inhibition at 10 µM (UACC-257) [%]	inhibition at 10 µM (ACHN) [%]	inhibition at 10 µM (SN12C) [%]	inhibition at 10 µM (HCT-116) [%]	inhibition at 10 µM (UO-31) [%]	inhibition at 10 µM (HOP-92) [%]	inhibition at 10 µM (BT-549) [%]	inhibition at 10 µM (RXF 393) [%]	inhibition at 10 µM (MDA-MB-231/ATCC) [%]	inhibition at 10 µM (NCI-H23) [%]	further results
Cc1ccccc1CNc1c2ccccc2nc2ccccc12 [Compound 2, Acridin-9-yl-(2-methylbenzyl)-amine]	77.7	78.7	102	80.3	50	71.9	54.7	59.2	91.2	61.6	67.3	88.4	75.7	92.1	84.5	101	44.1	92.2	60.1	76.6	inhibition at 10 µM (SK-MEL-5): 66.1%; inhibition at 10 µM (M14): 86.8%; inhibition at 10 µM (NCI-H460): 93.1%; inhibition at 10 µM (OVCAR-8): 79%; inhibition at 10 µM (SW-620): 86.2%; inhibition at 10 µM (COLO 205): 119%; inhibition at 10 µM (NCI-H226): 68.5%; inhibition at 10 µM (OVCAR-4): 67.1%; inhibition at 10 µM (K-562): 95%; inhibition at 10 µM (MALME-3M): 84.8%; inhibition at 10 µM (SF-539): 96.7%; inhibition at 10 µM (HCC-2998): 83.8%
Clc1ccc(CNc2c3ccccc3nc3ccccc23)cc1 [Compound 13, Acridin-9-yl-(4-chlorobenzyl)-amine]	59.4	53.8	79.2	60.7	33.5	47	31.6	40	95.4	37.4	23.9	77.2	60.9	84.3	73	74.5	29.1	70.3	45.2	47	inhibition at 10 µM (SK-MEL-5): 38.8%; inhibition at 10 µM (M14): 46.7%; inhibition at 10 µM (NCI-H460): 83.6%; inhibition at 10 µM (OVCAR-8): 68.1%; inhibition at 10 µM (SW-620): 69%; inhibition at 10 µM (COLO 205): 91.4%; inhibition at 10 µM (NCI-H226): 24.5%; inhibition at 10 µM (OVCAR-4): 66.9%; inhibition at 10 µM (K-562): 95.7%; inhibition at 10 µM (MALME-3M): 60.4%; inhibition at 10 µM (SF-539): 69.7%; inhibition at 10 µM (HCC-2998): 110%
COc1ccc(CNc2c3ccccc3nc3ccccc23)cc1 [Compound 7, Acridin-9-yl-(4-methoxybenzyl)-amine]	63.2	63.5	90	71.1	47	46.1	38.2	46.2	90.6	50.3	47.7	81.2	67.8	90.5	77.9	75.5	19.9	72.4	52.6	61.2	inhibition at 10 µM (SK-MEL-5): 37.8%; inhibition at 10 µM (M14): 62.9%; inhibition at 10 µM (NCI-H460): 90.3%; inhibition at 10 µM (OVCAR-8): 72.3%; inhibition at 10 µM (SW-620): 74.4%; inhibition at 10 µM (COLO 205): 88.4%; inhibition at 10 µM (NCI-H226): 48.6%; inhibition at 10 µM (OVCAR-4): 59.7%; inhibition at 10 µM (K-562): 93%; inhibition at 10 µM (MALME-3M): 60%; inhibition at 10 µM (SF-539): 72.5%; inhibition at 10 µM (HCC-2998): 61.4%
Fc1cccc(CNc2c3ccccc3nc3ccccc23)c1 [Compound 9, Acridin-9-yl-(3-fluorobenzyl)-amine]	64.2	64.8	113	70.8	62.2	52.1	37	48.9	85.1	68	41.9	82.9	67.2	86.6	76	104	22.9	67.2	69.4	66.1	inhibition at 10 µM (SK-MEL-5): 39.5%; inhibition at 10 µM (M14): 61.2%; inhibition at 10 µM (NCI-H460): 87.3%; inhibition at 10 µM (OVCAR-8): 64%; inhibition at 10 µM (SW-620): 78%; inhibition at 10 µM (COLO 205): 82.7%; inhibition at 10 µM (NCI-H226): 49.4%; inhibition at 10 µM (OVCAR-4): 69.5%; inhibition at 10 µM (K-562): 84.3%; inhibition at 10 µM (MALME-3M): 49.5%; inhibition at 10 µM (SF-539): 73.1%; inhibition at 10 µM (HCC-2998): 70.1%
